Assay results as given in patent US20020137929A1, “1 - (3-heterocyclylphenyl) isothiourea, -isourea, -guanidine and -amidine herbicidal agents” (Intellectual Property Department, BASF Aktiengesellschaft, priority 1998, published 2002).

What was measured:
[1] = tested on: GALAP (Galium); experiment: Postemergence herbicidal evaluation; assay type: in vivo, Galium aparine; details: postemergence
How it was run: (§1)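 Two-week-old seedlings sprayed with compound in 50/50 acetone/water plus 0.5% TWEEN 20, at about 0.0156 to 0.500 kg/ha, nozzle at 40 psi. Kept in greenhouse; rated visually 4-5 weeks after treatment on a 0-9 scale versus control, repeat tests averaged.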

[2] = tested on: ORYSAT (Rice, Tebonnet); experiment: Preemergence herbicidal evaluation; assay type: in vivo, Oryza sativa, (L.) Tebonnet; details: rated 4-5 weeks after treatment
How it was run: (§2)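 Greenhouse preemergence test: seed-soil mix sown on ~1 inch soil; aqueous acetone spray at equivalent of ~0.0156–0.500 kg/ha; greenhouse-held and watered; scored 0–9 visually at 4–5 weeks.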

[3] = tested on: ECHORC (Watergrass (Calif.)); experiment: Preemergence weed control under flooded paddy conditions; assay type: in vivo, Echinochloa oryzoides; details: rated 3-4 weeks after treatment
How it was run: (§3)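 Seeds or propagules sown in silt loam kept flooded 1.5-3 cm; compounds in 50/50 acetone/water pipetted into flood water at about 0.0313 to 0.500 kg/ha. Greenhouse; visual 0-9 rating versus untreated control 3-4 weeks after treatment.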

[4] = tested on: CASOB (Sicklepod); experiment: Postemergence herbicidal evaluation; assay type: in vivo, Cassia obtusifolia; details: postemergence
How it was run: as §1

[5] = tested on: CHEAL (Lambsquarters, Common); experiment: Preemergence herbicidal evaluation; assay type: in vivo, Chenopodium album; details: rated 4-5 weeks after treatment
How it was run: as §2

[6] = tested on: AMBEL (Ragweed, Common); experiment: Preemergence herbicidal evaluation; assay type: in vivo, Ambrosia artemisifolia; details: rated 4-5 weeks after treatment
How it was run: as §2

[7] = tested on: ZEAMX (Corn, Field); experiment: Preemergence herbicidal evaluation; assay type: in vivo, Zea mays; details: rated 4-5 weeks after treatment
How it was run: as §2

[8] = tested on: ZEAMX (Corn, Field); experiment: Postemergence herbicidal evaluation; assay type: in vivo, Zea mays; details: postemergence
How it was run: as §1

[9] = tested on: IPOHE (Morningglory, Ivyleaf); experiment: Preemergence herbicidal evaluation; assay type: in vivo, Ipomoea hederacea; details: rated 4-5 weeks after treatment
How it was run: as §2

[10] = tested on: TRZAWR (Wheat, Winter, cv Riband); experiment: Preemergence herbicidal evaluation; assay type: in vivo, Triticum aestivum; details: rated 4-5 weeks after treatment
How it was run: as §2

[11] = tested on: CYPSE (Flatsedge); experiment: Preemergence weed control under flooded paddy conditions; assay type: in vivo, Cyperus serotinus; details: rated 3-4 weeks after treatment
How it was run: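 Silt loam, seeds in top 0.5 cm; flood held 1.5-3 cm; test cpd as acetone/water 50/50 into flood water, ~0.0313-0.500 kg/ha a.i.; greenhouse 3-4 wk; visual 0-9 score vs control.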

[12] = tested on: CYPIR (Rice Flatsedge); experiment: as above; assay type: in vivo, Cyperus iria; details: rated 3-4 weeks after treatment
How it was run: as §3

[13] = rate 0.0156 kg/ha, rating scale 0-9
[14] = rate 0.0313 kg/ha, rating scale 0-9
[15] = rate 0.0625 kg/ha, rating scale 0-9
[16] = rate 0.1250 kg/ha, rating scale 0-9
[17] = rate 0.2500 kg/ha, rating scale 0-9

## CN(C)c1ccc(CN2C(=O)CSC2=Nc2cc(-n3c(=O)cc(C(F)(F)F)n(C)c3=O)c(F)cc2Cl)cc1 [Compound 138, 3-{4-Chloro-5-{{3-[p-(dimethylamino)benzyl]-4-oxo-2-thiazolidinylidene}amino}-2-fluorophenyl}-1-methyl-6-(trifluoromethyl)-2,4(1H,3H)-pyrimidinedione]
[1]; rate 0.0156 kg/ha
  Herbicidal rating GALAP: 0.0
[1]; rate 0.0313 kg/ha
  Herbicidal rating GALAP: 2.0
[1]; rate 0.0625 kg/ha
  Herbicidal rating GALAP: 2.0
[2]; [13]
  Preemergence herbicidal rating ORYSAT: 0.0
[2]; [14]
  Preemergence herbicidal rating ORYSAT: 0.0
[2]; [15]
  Preemergence herbicidal rating ORYSAT: 0.0
[2]; [16]
  Preemergence herbicidal rating ORYSAT: 0.0
[2]; [17]
  Preemergence herbicidal rating ORYSAT: 0.0
[3]; 0.0313 kg/ha
  herbicidal effect rating, ECHORC: 7.0
[3]; 0.0625 kg/ha
  herbicidal effect rating, ECHORC: 9.0
[3]; 0.1250 kg/ha
  herbicidal effect rating, ECHORC: 9.0
[3]; 0.2500 kg/ha
  herbicidal effect rating, ECHORC: 9.0
[4]; rate 0.0156 kg/ha
  Herbicidal rating CASOB: 0.0
[4]; rate 0.0313 kg/ha
  Herbicidal rating CASOB: 1.0
[4]; rate 0.0625 kg/ha
  Herbicidal rating CASOB: 6.0
[5]; [13]
  Preemergence herbicidal rating CHEAL: 1.0
[5]; [14]
  Preemergence herbicidal rating CHEAL: 9.0
[5]; [15]
  Preemergence herbicidal rating CHEAL: 7.0
[5]; [16]
  Preemergence herbicidal rating CHEAL: 9.0
[5]; [17]
  Preemergence herbicidal rating CHEAL: 9.0
[6]; [13]
  Preemergence herbicidal rating AMBEL: 0.0
[6]; [14]
  Preemergence herbicidal rating AMBEL: 0.0
[6]; [15]
  Preemergence herbicidal rating AMBEL: 0.0
[6]; [16]
  Preemergence herbicidal rating AMBEL: 1.0
[6]; [17]
  Preemergence herbicidal rating AMBEL: 2.0
[7]; [13]
  Preemergence herbicidal rating ZEAMX: 0.0
[7]; [14]
  Preemergence herbicidal rating ZEAMX: 0.0
[7]; [15]
  Preemergence herbicidal rating ZEAMX: 0.0
[7]; [16]
  Preemergence herbicidal rating ZEAMX: 0.0
[7]; [17]
  Preemergence herbicidal rating ZEAMX: 0.0
[8]; rate 0.0156 kg/ha
  Herbicidal rating ZEAMX: 4.0
[8]; rate 0.0313 kg/ha
  Herbicidal rating ZEAMX: 4.5
[8]; rate 0.0625 kg/ha
  Herbicidal rating ZEAMX: 5.0
[9]; [13]
  Preemergence herbicidal rating IPOHE: 0.0
[9]; [14]
  Preemergence herbicidal rating IPOHE: 0.0
[9]; [15]
  Preemergence herbicidal rating IPOHE: 0.0
[9]; [16]
  Preemergence herbicidal rating IPOHE: 0.0
[9]; [17]
  Preemergence herbicidal rating IPOHE: 0.0
[10]; [13]
  Preemergence herbicidal rating TRZAWR: 0.0
[10]; [14]
  Preemergence herbicidal rating TRZAWR: 0.0
[10]; [15]
  Preemergence herbicidal rating TRZAWR: 0.0
[10]; [16]
  Preemergence herbicidal rating TRZAWR: 0.0
[10]; [17]
  Preemergence herbicidal rating TRZAWR: 0.0
[11]; 0.0313 kg/ha
  herbicidal effect rating, CYPSE: 0.0
[11]; 0.0625 kg/ha
  herbicidal effect rating, CYPSE: 0.0
[11]; 0.1250 kg/ha
  herbicidal effect rating, CYPSE: 0.0
[11]; 0.2500 kg/ha
  herbicidal effect rating, CYPSE: 0.0
[12]; 0.0313 kg/ha
  herbicidal effect rating, CYPIR: 2.0
[12]; 0.0625 kg/ha
  herbicidal effect rating, CYPIR: 2.0
[12]; 0.1250 kg/ha
  herbicidal effect rating, CYPIR: 3.0
[12]; 0.2500 kg/ha
  herbicidal effect rating, CYPIR: 5.0

## Cn1c(C(F)(F)F)cc(=O)n(-c2cc(N=C3SCC(=O)N3CC(=O)OCC3CCCCC3)c(Cl)cc2F)c1=O [Compound 123, Cyclohexylmethyl 2-{{2-chloro-5-[3,6-dihydro-3-methyl-2,6-dioxo-4-(trifluoromethyl)-1(2H)-pyrimidinyl]-4-fluorophenyl}imino}-4-oxo-3-thiazolidineacetate]
[1]; rate 0.0156 kg/ha
  Herbicidal rating GALAP: 2.0
[1]; rate 0.0313 kg/ha
  Herbicidal rating GALAP: 4.0
[1]; rate 0.0625 kg/ha
  Herbicidal rating GALAP: 6.0
[1]; rate 0.1250 kg/ha
  Herbicidal rating GALAP: 7.0
[2]; rate 0.0156 kg/ha
  Preemergence herbicidal rating ORYSAT: 0.0
[2]; rate 0.0313 kg/ha
  Preemergence herbicidal rating ORYSAT: 0.0
[2]; rate 0.0625 kg/ha
  Preemergence herbicidal rating ORYSAT: 0.0
[2]; rate 0.1250 kg/ha
  Preemergence herbicidal rating ORYSAT: 1.0
[2]; rate 0.2500 kg/ha
  Preemergence herbicidal rating ORYSAT: 3.0
[2]; rate 0.5000 kg/ha
  Preemergence herbicidal rating ORYSAT: 5.0
[3]; 0.0313 kg/ha
  herbicidal effect rating, ECHORC: 7.0
[3]; 0.0625 kg/ha
  herbicidal effect rating, ECHORC: 9.0
[3]; 0.1250 kg/ha
  herbicidal effect rating, ECHORC: 9.0
[3]; 0.2500 kg/ha
  herbicidal effect rating, ECHORC: 9.0
[4]; rate 0.0156 kg/ha
  Herbicidal rating CASOB: 3.0
[4]; rate 0.0313 kg/ha
  Herbicidal rating CASOB: 3.0
[4]; rate 0.0625 kg/ha
  Herbicidal rating CASOB: 9.0
[4]; rate 0.1250 kg/ha
  Herbicidal rating CASOB: 8.0
[5]; rate 0.0156 kg/ha
  Preemergence herbicidal rating CHEAL: 9.0
[5]; rate 0.0313 kg/ha
  Preemergence herbicidal rating CHEAL: 9.0
[5]; rate 0.0625 kg/ha
  Preemergence herbicidal rating CHEAL: 9.0
[5]; rate 0.1250 kg/ha
  Preemergence herbicidal rating CHEAL: 9.0
[5]; rate 0.2500 kg/ha
  Preemergence herbicidal rating CHEAL: 9.0
[5]; rate 0.5000 kg/ha
  Preemergence herbicidal rating CHEAL: 9.0
[6]; rate 0.0156 kg/ha
  Preemergence herbicidal rating AMBEL: 2.0
[6]; rate 0.0313 kg/ha
  Preemergence herbicidal rating AMBEL: 1.0
[6]; rate 0.0625 kg/ha
  Preemergence herbicidal rating AMBEL: 3.0
[6]; rate 0.1250 kg/ha
  Preemergence herbicidal rating AMBEL: 4.0
[6]; rate 0.2500 kg/ha
  Preemergence herbicidal rating AMBEL: 9.0
[6]; rate 0.5000 kg/ha
  Preemergence herbicidal rating AMBEL: 9.0
[7]; rate 0.0156 kg/ha
  Preemergence herbicidal rating ZEAMX: 0.0
[7]; rate 0.0313 kg/ha
  Preemergence herbicidal rating ZEAMX: 1.0
[7]; rate 0.0625 kg/ha
  Preemergence herbicidal rating ZEAMX: 1.0
[7]; rate 0.1250 kg/ha
  Preemergence herbicidal rating ZEAMX: 5.0
[7]; rate 0.2500 kg/ha
  Preemergence herbicidal rating ZEAMX: 7.0
[7]; rate 0.5000 kg/ha
  Preemergence herbicidal rating ZEAMX: 7.0
[8]; rate 0.0156 kg/ha
  Herbicidal rating ZEAMX: 6.5
[8]; rate 0.0313 kg/ha
  Herbicidal rating ZEAMX: 7.0
[8]; rate 0.0625 kg/ha
  Herbicidal rating ZEAMX: 7.5
[8]; rate 0.1250 kg/ha
  Herbicidal rating ZEAMX: 7.5
[9]; rate 0.0156 kg/ha
  Preemergence herbicidal rating IPOHE: 0.0
[9]; rate 0.0313 kg/ha
  Preemergence herbicidal rating IPOHE: 0.0
[9]; rate 0.0625 kg/ha
  Preemergence herbicidal rating IPOHE: 0.0
[9]; rate 0.1250 kg/ha
  Preemergence herbicidal rating IPOHE: 7.0
[9]; rate 0.2500 kg/ha
  Preemergence herbicidal rating IPOHE: 9.0
[9]; rate 0.5000 kg/ha
  Preemergence herbicidal rating IPOHE: 9.0
[10]; rate 0.0156 kg/ha
  Preemergence herbicidal rating TRZAWR: 0.0
[10]; rate 0.0313 kg/ha
  Preemergence herbicidal rating TRZAWR: 0.0
[10]; rate 0.0625 kg/ha
  Preemergence herbicidal rating TRZAWR: 0.0
[10]; rate 0.1250 kg/ha
  Preemergence herbicidal rating TRZAWR: 1.0
[10]; rate 0.2500 kg/ha
  Preemergence herbicidal rating TRZAWR: 1.0
[10]; rate 0.5000 kg/ha
  Preemergence herbicidal rating TRZAWR: 1.0
[11]; 0.0313 kg/ha
  herbicidal effect rating, CYPSE: 5.0
[11]; 0.0625 kg/ha
  herbicidal effect rating, CYPSE: 9.0
[11]; 0.1250 kg/ha
  herbicidal effect rating, CYPSE: 9.0
[11]; 0.2500 kg/ha
  herbicidal effect rating, CYPSE: 9.0
[12]; 0.0313 kg/ha
  herbicidal effect rating, CYPIR: 6.0
[12]; 0.0625 kg/ha
  herbicidal effect rating, CYPIR: 5.0
[12]; 0.1250 kg/ha
  herbicidal effect rating, CYPIR: 9.0
[12]; 0.2500 kg/ha
  herbicidal effect rating, CYPIR: 9.0
